Measurements: the supplement of paper PMC10733146

Key:
Assay in all cases: viability relative to DMSO control (fraction); higher = less drug effect (more viable cells)
Settings in all cases: 48 h
[1] = system: primary B-PLL patient cells (S016)
Procedure, shortened: (§1)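 The cells were primary mononuclear tumour cells, either fresh or cryopreserved, isolated by Ficoll from blood or bone marrow or derived from processed lymph node. Each well of a 384-well plate received 4 × 10^4 cells onto compounds pre-plated at five concentrations, with one well per concentration. The medium was RPMI-1640 with penicillin/streptomycin, L-glutamine and human serum, and plates stood at 37 °C and 5% CO2 for 48 h. Viability is reported as CellTiter-Glo luminescence relative to the median of 16 inner DMSO wells.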

[2] = system: primary AML patient cells (S009)
Procedure, shortened: as §1

[3] = system: primary AML patient cells (S002)
Procedure, shortened: as §1

[4] = system: primary T-PLL patient cells (S008)
Procedure, shortened: as §1

[5] = system: primary AML patient cells (S012)
Procedure, shortened: as §1

[6] = system: primary MCL patient cells (S041)
Procedure, shortened: as §1

[7] = system: primary MCL patient cells (S068)
Procedure, shortened: as §1

[8] = system: primary AML patient cells (S085)
Procedure, shortened: as §1

[9] = system: primary AML patient cells (S037)
Procedure, shortened: as §1

[10] = system: primary AML patient cells (S011)
Procedure, shortened: as §1

[11] = system: primary MCL patient cells (S053)
Procedure, shortened: as §1

[12] = system: primary AML patient cells (S081)
Procedure, shortened: as §1

[13] = system: primary BL patient cells (S005)
Procedure, shortened: as §1

[14] = system: primary FL patient cells (S022)
Procedure, shortened: as §1

[15] = system: primary AML patient cells (S017)
Procedure, shortened: as §1

[16] = system: primary AML patient cells (S021)
Procedure, shortened: as §1

[17] = system: primary FL patient cells (S087)
Procedure, shortened: as §1

[18] = system: primary AML patient cells (S019)
Procedure, shortened: as §1

[19] = system: primary AML patient cells (S091)
Procedure, shortened: as §1

Nc1ccc2ncnc(NCCc3ccc(Oc4ccccc4)cc3)c2c1 [EVP4593]
viability ([1]; 0.008 µM): 0.929 | viability ([1]; 0.04 µM): 0.874 | viability ([1]; 0.2 µM): 0.8 | viability ([1]; 1 µM): 0.716 | viability ([1]; 5 µM): 0.713 | viability ([2]; 0.008 µM): 0.792 | viability ([2]; 0.04 µM): 0.705 | viability ([2]; 0.2 µM): 0.749 | viability ([2]; 1 µM): 0.636 | viability ([2]; 5 µM): 0.691 | viability ([3]; 0.008 µM): 0.922 | viability ([3]; 0.04 µM): 0.857 | viability ([3]; 0.2 µM): 0.753 | viability ([3]; 1 µM): 0.668 | viability ([3]; 5 µM): 0.726 | viability ([4]; 0.008 µM): 0.997 | viability ([4]; 0.04 µM): 0.971 | viability ([4]; 0.2 µM): 0.894 | viability ([4]; 1 µM): 0.861 | viability ([4]; 5 µM): 0.868 | viability ([5]; 0.008 µM): 1.05 | viability ([5]; 0.04 µM): 1.03 | viability ([5]; 0.2 µM): 1.07 | viability ([5]; 1 µM): 0.992 | viability ([5]; 5 µM): 1.05 | viability ([6]; 0.008 µM): 0.902 | viability ([6]; 0.04 µM): 0.93 | viability ([6]; 0.2 µM): 0.873 | viability ([6]; 1 µM): 0.716 | viability ([6]; 5 µM): 0.729 | viability ([7]; 0.008 µM): 0.844 | viability ([7]; 0.04 µM): 0.766 | viability ([7]; 0.2 µM): 0.741 | viability ([7]; 1 µM): 0.683 | viability ([7]; 5 µM): 0.676 | viability ([8]; 0.008 µM): 2.31 | viability ([8]; 0.04 µM): 0.901 | viability ([8]; 0.2 µM): 1.11 | viability ([8]; 1 µM): 0.666 | viability ([8]; 5 µM): 0.55 | viability ([9]; 0.008 µM): 0.943 | viability ([9]; 0.04 µM): 0.813 | viability ([9]; 0.2 µM): 0.859 | viability ([9]; 1 µM): 1.08 | viability ([9]; 5 µM): 1.07 | viability ([10]; 0.008 µM): 0.746 | viability ([10]; 0.04 µM): 0.633 | viability ([10]; 0.2 µM): 0.617 | viability ([10]; 1 µM): 0.467 | viability ([10]; 5 µM): 0.459 | viability ([11]; 0.008 µM): 0.876 | viability ([11]; 0.04 µM): 0.875 | viability ([11]; 0.2 µM): 0.821 | viability ([11]; 1 µM): 0.672 | viability ([11]; 5 µM): 0.642 | viability ([12]; 0.008 µM): 0.859 | viability ([12]; 0.04 µM): 0.821 | viability ([12]; 0.2 µM): 0.799 | viability ([12]; 1 µM): 0.784 | viability ([12]; 5 µM): 0.78 | viability ([13]; 0.008 µM): 1.01 | viability ([13]; 0.04 µM): 0.939 | viability ([13]; 0.2 µM): 0.811 | viability ([13]; 1 µM): 0.73 | viability ([13]; 5 µM): 0.716 | viability ([14]; 0.008 µM): 0.911 | viability ([14]; 0.04 µM): 0.871 | viability ([14]; 0.2 µM): 0.805 | viability ([14]; 1 µM): 0.816 | viability ([14]; 5 µM): 0.825 | viability ([15]; 0.008 µM): 0.889 | viability ([15]; 0.04 µM): 0.933 | viability ([15]; 0.2 µM): 0.875 | viability ([15]; 1 µM): 0.901 | viability ([15]; 5 µM): 0.795 | viability ([16]; 0.008 µM): 0.769 | viability ([16]; 0.04 µM): 0.659 | viability ([16]; 0.2 µM): 0.572 | viability ([16]; 1 µM): 0.437 | viability ([16]; 5 µM): 0.439 | viability ([17]; 0.008 µM): 0.933 | viability ([17]; 0.04 µM): 0.915 | viability ([17]; 0.2 µM): 0.862 | viability ([17]; 1 µM): 0.811 | viability ([17]; 5 µM): 0.79 | viability ([18]; 0.008 µM): 0.922 | viability ([18]; 0.04 µM): 0.883 | viability ([18]; 0.2 µM): 0.84 | viability ([18]; 1 µM): 0.82 | viability ([18]; 5 µM): 0.764 | viability ([19]; 0.008 µM): 0.891 | viability ([19]; 0.04 µM): 0.837 | viability ([19]; 0.2 µM): 0.869 | viability ([19]; 1 µM): 0.624 | viability ([19]; 5 µM): 0.532
